Experimental data from US7271148B2, “Inhibition of cellular proteases” (The Board of Regents of The University of Texas System, priority 1999, dated 2007).

Tested on: p21^cip1 abundance in HCMV-infected LU cells
Test: Western blot of p21cip1 abundance in HCMV-infected, density-arrested LU cells
Type: cell-based, human
Protocol: Cell culture and growth arrest. LU cells (3) were propagated in Eagle's minimum essential medium containing 10% fetal bovine serum and penicillin (100 units/ml)/streptomycin (100 μg/ml) in a 5% CO2 in air atmosphere. The cells were density-arrested as described previously in detail (18).
Virus stocks and productive infection. The AD169 strain of HCMV was propagated in LU cells as previously described in detail (6). The infectivity of virus stocks was determined by plaque assay (3). Virus stocks typically had infectivities between 8.0×10^6 and 4.0×10^7 plaque-forming units (PFU)/milliliter. LU cells were infected with HCMV as described in detail by Bresnahan et al. (18). Virus stocks and cell cultures were routinely examined for mycoplasma.
Western blots. Polyclonal or monoclonal antibody for p21^cip1 was obtained from Santa Cruz Biotechnology, Inc. (Santa Cruz, Calif.). Monoclonal antibodies against m-calpain, μ-calpain or calpastatin were generously provided by Dr. R. I. Mellgren (see also 75). Cells were harvested as described previously (18) by dislodging the cells with a cell lifter in phosphate buffered saline. The cells were collected by sedimentation and lysed in NP-40 lysis buffer [50 mM Tris, pH 7.4, 50 mM NaCl, 0.5% NP-40, and 1 mM NaVO3, 50 mM NaF, 1mM phenylmethylsulfonyl fluoride (PMSF), 1 mM dithiothreitol (DTT), 25 μg/ml trypsin inhibitor, 25 μg/ml aprotinin, 1 mM benzamide, and 25 μg/ml pepstatin A added just before use]. Cellular debris was removed by sedimentation and the supernatant fluids were reserved. The protein concentration was determined by the BCA protein assay (Pierce, Rockford, Ill.). Whole cell extracts (40 μg/lane) were fractionated by SDS-polyacrylamide gel electrophoresis (PAGE), and the polypeptides were transferred to nitrocellulose membranes (Bio-Rad Laboratories, Hercules, Calif.) as described previously (18). Antigen-antibody reactions were detected with the enhanced chemiluminescent assay (Amersham Pharmacia Biotech) following the manufacturer's recommendations. […]
FIGS. 9 and 10. The concentration effect of E64d on p21^cip1 abundance in HCMV-infected cells. 9: LU cells were density arrested as described in Materials and Methods. The cells were HCMV (5 PFU/cell) or mock infected, and at 48 hr PI were treated with selected concentrations of E64d. Whole cell lysates were prepared 6 hr later, and 40 μg of protein from each lysate was resolved by SDS-PAGE. The proteins were transferred to nitrocellulose and probed with antibodies to p21^cip1. Mock: mock-infected cells in the absence of drug. Control, untreated HCMV-infected cells. 0, DMSO solvent control, consisting of HCMV-infected cells treated with the same concentration of DMSO solvent (0.1%) contained in the highest concentration of E64d. 10: Represents the abundance of p21^cip1 determined by densitometric analysis of the data in FIG. 9.
FIGS. 11 and 12. The concentration effect of Z-Leu-Leu-H on p21^cip1 abundance in HCMV-infected cells. 11. LU cells were density arrested as described in Materials and Methods. The cells were HCMV (5 PFU/cell) infected, and at 48 hr PI were treated with selected concentrations of Z-Leu-Leu-H. Whole cell lysates were prepared 6 hr later, and 40 μg of protein from each lysate was resolved by SDS-PAGE. The proteins were transferred to nitrocellulose and probed with antibodies to p21^cip1. Mock, Control, and 0 are defined as in the legend to FIG. 9. 12 : Represents the abundance of p21^cip1 determined by densitometric analysis of the data in FIG. 11.
FIGS. 13 and 14. The time course for the effect of E64d on p21^cip1 abundance in HCMV-infected, density-arrested cells. 13: LU cells were density arrested, as described in Materials and Methods. The cells were HCMV (5 PFU/cell) or mock infected, and at the intervals indicated in the Fig., beginning 1 hr after infection, subsets of the cells were treated with E64d (100 μM). […]

In the case of CC(C)C[C@H](NC(=O)[C@H]1O[C@@H]1C(=O)O)C(=O)NCCCCN=C(N)N (relative stereo) [E64d, trans-epoxysuccinyl-L-leucylamido (4-guanidino)-butane], the “p21^cip1 abundance as % of that measured in mock-infected cells” value (100 μM, HCMV-infected cells treated at 48 hr PI, lysates 6 hr later) is reported as “about 85%”, the “increase in the abundance of p21^cip1” value (E64d 100 μM from 48 hr PI, HCMV-infected cells, after 12 hr of treatment) is reported as 4 fold and the “maximum level of p21^cip1 relative to that observed at 0 hr” value (E64d 100 μM from 48 hr PI, HCMV-infected cells, up to 24 hr treatment) is reported as “about 84%”. The “p21^cip1 levels versus absence of inhibitor over time course of infection (in words)” value (E64d 100 μM up to 12 hr before harvest, HCMV-infected cells, 3 hr to 96 hr PI) was “consistently greater” and the “protection of p21^cip1, concentration effect (in words)” value (HCMV-infected cells treated at 48 hr PI for 6 hr, selected concentrations up to 100 μM) was “directly dependent on the concentration”.
